Measurements: article PMC539285, “Anti-Plasmodium activity of ceramide analogs” (Malaria Journal, 2004)
Like-named read-outs stand apart in the source and are kept apart here.

Key:
[1] = test system: chloroquine-resistant strain FcB1 of P. falciparum; test: Anti-Plasmodium activity, [3H]hypoxanthine microdilution on asynchronous cultures; type: cell-based, Plasmodium falciparum; conditions: for IC90 / IC50: Plasmodium falciparum; for IC90: 48 h, 90% growth inhibition, read-out: CI90 (the source's name)
Procedure: P. falciparum strains (FcB1/Colombia, K1/Thailand, F32/Tanzania, W2/Indochina) were maintained in continuous culture on human erythrocytes in RPMI medium containing 7% (v/v) heat-inactivated human serum under an atmosphere of 3% CO2, 6% O2, 91% N2, at 37°C, as described by Trager and Jensen. Parasite synchronization was performed successively by treatment with 5% (w/v) sorbitol and by concentration in gelatin solution as previously described.
Drug susceptibility assays were performed using a modification of the semi automated microdilution technique of Desjardins et al.. Stock solutions of test compounds were prepared in DMSO. Drug solutions were serially diluted twofold with 100 μl culture medium in 96-well plates. Asynchronous parasite cultures (100 μl, 1 % parasitemia and 1 % final hematocrite) were added to each well and incubated for 24 hours at 37°C prior to the addition of 0.5 μCi of [^3H] hypoxanthine (Amersham, France, 1 to 5 Ci.mmol/ml) per well. After a further incubation of 24 hour, plates were frozen and thawed. Cell lysates were then collected onto glass-filter papers and counted in a liquid scintillation spectrometer. The growth inhibition for each drug concentration was determined by comparison of the radioactivity incorporated in the treated culture with that in the control culture (having the same final % of DMSO) maintained on the same plate. The concentration causing 50% growth inhibition (IC50) and 90% growth (IC90) were obtained from the drug concentration-response curve and the results were expressed as the means ± the standard deviations determined from several independent experiments.

[2] = test system: human MRC-5 cells; test: Cytotoxicity test upon human embryonic cells (MTT); type: cell-based; conditions: for IC50: Homo sapiens, MRC5, 120 h, MRC-5, five days, MTT, mean of three experiments; for Index of selectivity: ratio of the IC50 value on MRC-5 cells to that on P. falciparum
Procedure: (§1) A human diploid embryonic lung cell line (MRC-5, Bio-Whittaker 72211D) was used to assess the cytotoxic effects towards eukaryotic host cells. MRC-5 cells were seeded at 5,000 cells per well in 100 μl. After 24 hours, the cells were washed and two-fold dilutions of the drug were added in 200 μl standard culture medium (RPMI medium + 5% fetal calf serum) and maintained for five days under 5% CO2 atmosphere. The final DMSO concentration in the culture remained below 0.1%. Untreated cultures were included as controls. The cytotoxicity was determined using the colorimetric MTT assay according to the manufacturer's recommendations (Cell proliferation kit I, Roche Applied Science, France) and scored as a percentage of reduction in absorption at 540 nm of treated cultures versus untreated control cultures. […] The results were expressed as the mean ± the standard deviations determined from several independent experiments. The index of selectivity was defined as the ratio of the IC50 value on MRC-5 to that of P. falciparum.

[3] = Cytotoxicity test upon human embryonic cells (MTT); type: cell-based; conditions: human, MRC-5 human diploid embryonic lung cells; MRC-5, five days, MTT; mean of three experiments
Procedure: as §1

[4] = test system: P. falciparum synchronized cultures; test: Parasite stage-specific inhibitory effects and reversibility (Giemsa-stained smears); type: cell-based, Plasmodium falciparum; conditions: trophozoite stage, 250 nM (data not shown)
Procedure: Synchronized cultures (1–2% parasitemia) at the ring stage (0–10 hours old parasites), the trophozoite stage (25–35 hours old parasites) and the schizonte stage (40–48 hours old parasites) were maintained in the presence of drug concentrations in the vicinity of IC50 values. Aliquots were removed at the indicated times, washed three times with culture medium and maintained in culture in the absence or in the presence of a given drug. […] Parasitaemias were determined by counting 3,000 cells for each sample. Controls consisted of parasites incubated with DMSO instead of drugs processed in the same way.
To investigate the cytostatic or cytotoxic effects of AD2646 on the parasite development, cultures at the ring stage (0–10 hours), the trophozoite stage (25–35 hours) and the schizonte stage (40–48 hours) were incubated with 30, 100 or 250 nM of AD2646 for 24.5 hours for the ring stage, for 11 hours for the trophozoite stage, and for 14 hours for the schizonte stage. Aliquots were then taken, washed and incubated in the absence or the presence of drug for a further 13 hours to 24 hours depending upon the parasite stage tested (see Figure 5). Parasitaemia and parasite stages were determined on Giemsa-stained smears at time of aliquot removal and after the subsequent incubation.

[5] = Figure 2, series A (amide linkage), strain FcB1
[6] = Figure 2, series A (amide linkage), strain FcB1, read-out: CI50 (the source's name)
[7] = Figure 3, series B, strain FcB1
[8] = Figure 3, series B (methylene or thiourea linkage), strain FcB1, read-out: CI50 (the source's name)
[9] = FCB1, Figure 4, selected derivatives, read-out: IC50

Structure (SMILES)	IC90 [1, 5]	IC50 [1, 6]	IC90 [1, 7]	IC50 [1, 8]	other results
CCCCCCCC(=O)N[C@H](CO)[C@H](O)c1ccc([N+](=O)[O-])cc1 [AD2494]	70 µM	13.1 µM	–	–	–
CCCCCCCCCCCCCCCC(=O)N[C@H](CO)[C@H](O)c1ccc([N+](=O)[O-])cc1 [AD2495]	20.3 ± 1.4 µM	10.8 ± 2.3 µM	–	–	–
CCCC(=O)N[C@@H](CO)[C@@H](O)c1ccc([N+](=O)[O-])cc1 [AD2549]	–	> 100 µM	–	–	–
CCCCCCCC(=O)N[C@@H](CO)[C@@H](O)c1ccc([N+](=O)[O-])cc1 [AD2550]	> 100 µM	64.1 µM	–	–	–
CCCCCCCCCCCC(=O)N[C@H](CO)[C@H](O)c1ccc([N+](=O)[O-])cc1 [AD2552]	36.3 ± 16.1 µM	16.5 ± 6.5 µM	–	–	–
CCCCCCCCCCCCCC(=O)N[C@H](CO)[C@H](O)c1ccc([N+](=O)[O-])cc1 [AD2557]	37.8 ± 15.3 µM	17.2 ± 5.5 µM	–	–	–
CCCCCCCCCCCCCCCCCC(=O)N[C@H](CO)[C@H](O)c1ccc([N+](=O)[O-])cc1 [AD2558]	> 50 µM	34.3 µM	–	–	–
CCCCCCCCCCCCCC(=O)N[C@@H](CO)[C@@H](O)c1ccc([N+](=O)[O-])cc1 [AD2560]	36 ± 18.2 µM	18.7 ± 6.5 µM	–	–	–
CCCC(=O)N[C@H](CO)[C@H](O)c1ccc([N+](=O)[O-])cc1 [AD2583]	67.4 µM	26.8 µM	–	–	–
O=C(CCCO)N[C@H](CO)[C@H](O)c1ccc([N+](=O)[O-])cc1 [AD2589]	–	> 100 µM	–	–	–
CC(=O)N[C@H](CO)[C@H](O)c1ccc([N+](=O)[O-])cc1 [AD2590]	–	> 100 µM	–	–	–
CCCCCCCC(=O)Nc1ccc([C@@H](O)[C@@H](CO)NC(=O)CCC)cc1 [AD2603]	> 100 µM	70.1 µM	–	–	–
CCCCCCCCCCCC(=O)Nc1ccc([C@@H](O)[C@@H](CO)NC(=O)CCC)cc1 [AD2604]	> 100 µM	70 µM	–	–	–
CCCCCCCCCCCCCCCC(=O)Nc1ccc([C@@H](O)[C@@H](CO)NC(=O)CCC)cc1 [AD2605]	–	> 100 µM	–	–	–
CCCC(=O)N[C@H](CO)[C@H](O)c1ccc(NC(=O)CCC(=O)O)cc1 [AD2606]	–	> 100 µM	–	–	–
CCCC(=O)Nc1ccc([C@@H](O)[C@@H](CO)NC(=O)CCC)cc1 [AD2607]	–	> 100 µM	–	–	–
CCCCCCCCCCCCCCCCN[C@H](CO)[C@H](O)c1ccc([N+](=O)[O-])cc1 [AD2619]	–	–	0.073 ± 0.005 µM	0.0428 ± 0.0085 µM	IC50 [2]: 26.7 µM; Index of selectivity [2]: 624; IC90 at 5 days [3]: 42.3 µM
CCCCCCCCCCCCCCCC(=O)N[C@H](CO)[C@H](O)c1ccc(N)cc1 [AD2623]	81.3 µM	40.4 µM	–	–	–
CCCCCCCCCCCCCCN[C@@H](CO)[C@@H](O)c1ccc([N+](=O)[O-])cc1 [AD2645]	–	–	0.104 ± 0.001 µM	0.0379 ± 0.0021 µM	IC50 [2]: 6.1 µM; Index of selectivity [2]: 161; IC90 at 5 days [3]: 10.3 µM
CCCCCCCCCCCC(=O)Nc1ccc([C@@H](O)[C@H](N)CO)cc1 [AD2648]	9.6 µM	4.9 µM	–	–	–

Structure (SMILES)	IC90 [1, 5]	IC50 [1, 6]	IC90 [1, 7]	IC50 [1, 8]	other results
CCCCCCNc1ccc([C@@H](O)[C@@H](CO)NCCCCCC)cc1 [AD2651]	–	–	0.135 ± 0.019 µM	0.0857 ± 0.0232 µM	parasite development, trophozoite stage [4]: complete inhibition of parasite development
CCCCCCCCNc1ccc([C@@H](O)[C@@H](CO)NCCCCCCCC)cc1 [AD2670]	–	–	0.069 ± 0.003 µM	0.0337 ± 0.0037 µM	parasite development, trophozoite stage [4]: complete inhibition of parasite development
CCCCCCCCCCCCCCN[C@H](CO)[C@H](O)c1ccc(N)cc1 [AD2672]	–	–	2.6 ± 0.65 µM	1.7 ± 0.2 µM	IC50 [2]: 3.7 µM; Index of selectivity [2]: 2; IC90 at 5 days [3]: 5.9 µM
CCCCCCCCCCCCCCNC(CO)Cc1ccccc1 (centres unmarked) [AD2729]	–	–	–	–	reduction of anti-Plasmodium activity by removal of the carbon 3 hydroxyl group ([1]; AD2729 compared with AD2730): 13.5 times; IC50 [1, 9]: 0.258 ± 0.0107 µM; IC50 [2]: 5.8 µM; Index of selectivity [2]: 22; IC90 at 5 days [3]: 9.8 µM
CCCCCCCCCCCCCCN[C@H](CO)[C@H](O)c1ccccc1 [AD2730]	–	–	–	–	IC50 [1, 9]: 0.0189 ± 0.0017 µM; IC50 [2]: 6.1 µM; Index of selectivity [2]: 322; IC90 at 5 days [3]: 9.9 µM
CCN[C@H](CO)[C@H](O)c1ccc([N+](=O)[O-])cc1 [AD-2212]	–	–	–	> 33 µM	–
CCNC(=S)N[C@H](CO)[C@H](O)c1ccc([N+](=O)[O-])cc1 [AD-2215]	–	–	–	> 50 µM	–
CCCCNC(=S)N[C@H](CO)[C@H](O)c1ccc([N+](=O)[O-])cc1 [AD-2216]	–	–	13.9 ± 7.1 µM	1.13 ± 0.24 µM	–
CC(C)(C)NC(=S)N[C@H](CO)[C@H](O)c1ccc([N+](=O)[O-])cc1 [AD-2217]	–	–	0.958 ± 0.013 µM	0.574 ± 0.05 µM	–
CCCCN[C@H](CO)[C@H](O)c1ccc([N+](=O)[O-])cc1 [AD-2493]	–	–	5.1 ± 0.15 µM	0.78 ± 0.07 µM	–
CCCCCCCCCCCCCCCCCCCCN[C@H](CO)[C@H](O)c1ccc([N+](=O)[O-])cc1 [AD-2554]	–	–	–	> 200 µM	–
CCCCCCCCCCCCN[C@H](CO)[C@H](O)c1ccc([N+](=O)[O-])cc1 [AD-2617]	–	–	0.304 ± 0.007 µM	0.0171 ± 0.0053 µM	–
CCCCCCCCCCCCNc1ccc([C@@H](O)[C@@H](CO)NCCCCCCCCCCCC)cc1 [AD-2653]	–	–	5.5 µM	3.25 µM	–
CCCCNc1ccc([C@@H](O)[C@@H](CO)NCCCC)cc1 [AD-2664]	–	–	2.4 ± 0.7 µM	1.3 ± 0.2 µM	–
CCCCCCCCCCCCCCN[C@H](CO)[C@H](O)c1ccc(NCC)cc1 [AD-2677]	–	–	2.7 µM	1.48 µM	–
CCCCCCCCCCCCCCN[C@H](CO)[C@H](O)c1ccc(NC(C)=O)cc1 [AD-2678]	–	–	10.6 µM	5.8 µM	–
CCCCCCCCCCCCCCN[C@H](CO)[C@H](O)c1ccc(NC(=O)CCCCC)cc1 [AD-2680]	–	–	5.5 µM	3.3 µM	–
CCCCCCCCCCCCCCN[C@H](C)[C@H](O)c1ccccc1 [AD-2724]	–	–	–	–	IC50 [1, 9]: 0.0334 ± 0.0031 µM
CCN(CC)CCCC(C)Nc1ccnc2cc(Cl)ccc12 (centres unmarked) [chloroquine, reference compound]	–	–	–	–	IC50 ([1]; FCB1): 0.115 ± 0.025 µM
